Assay results reported in patent US20060229433A1, “Modified antiviral peptides with increased activity and cell membrane affinity” (priority 2003, published 2006).
“And” between values parts separate entries of the source, which are not always exact repeats. Identical values can stand only once. Square brackets hold non-standard residues; d marks the D form. Peptide text beside a SMILES is read from it. Ava = NCCCCC(=O)O

Assays:
Type in all cases: cell-based
HIV-1 NL 4-3 [1] = experiment: HIV-1 infection of C8166 cells (syncytia formation, p24 ELISA) with HIV-1 NL 4-3; parameters: key: ++, +, (+), (+)− and − represent decreasing numbers of syncitia formed; ++, +, (+), (+)− and − represent decreasing numbers of syncitia formed; ++, +, (+), (+)− and − represent decreasing numbers of syncitia formed; ++, +, (+), (+)− and − represent decreasing numbers of syncitia formed; ++, +, (+), (+)− and − represent decreasing numbers of syncitia formed; details: Table 6
Summary of the method: (§1)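 Infection was read out as syncytia and as cell-free p24 in supernatants (ELISA) from C8166 cells that received HIV-1 (1000 TCID50/ml, 1 h, 37 °C) after a 1 h peptide pretreatment. Peptide stayed on before, during and after adsorption. Toxicity was checked by daily trypan-blue counts.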

HIV-1 NL 4-3 [2] = experiment: as above; parameters: key to syncitia formed, Day 4 / syncitia formed, Day 5 / syncitia formed, Day 6 / syncitia formed, Day 7: ++, +, (+), (+)− and − represent decreasing numbers of syncitia formed; ++, +, (+), (+)− and − represent decreasing numbers of syncitia formed; ++, +, (+), (+)− and − represent decreasing numbers of syncitia formed; ++, +, (+), (+)− and − represent decreasing numbers of syncitia formed; ++, +, (+), (+)− and − represent decreasing numbers of syncitia formed
Summary of the method: as §1

HIV-1 NDK = experiment: HIV-1 infection of C8166 cells (syncytia formation, p24 ELISA) with HIV-1 NDK; parameters: key to syncitia formed, Day 4 / syncitia formed, Day 5 / syncitia formed, Day 6 / syncitia formed, Day 7: ++, +, (+), (+)− and − represent decreasing numbers of syncitia formed; ++, +, (+), (+)− and − represent decreasing numbers of syncitia formed; ++, +, (+), (+)− and − represent decreasing numbers of syncitia formed; ++, +, (+), (+)− and − represent decreasing numbers of syncitia formed; ++, +, (+), (+)− and − represent decreasing numbers of syncitia formed; details: for P 24: P 24 after Day 7
Summary of the method: as §1

## C[C@H](NC(=O)[C@H](CCCNC(=N)N)NC(=O)CNC(=O)[C@@H]1CCCN1C(=O)CN)C(=O)NCCCCC(=O)O [GPGRA valeric acid, GPGRA-NHCH2CH2CH2CH2COOH] (H-GPGRA[Ava]-OH; N-terminus assumed)
HIV-1 NL 4-3 [1]; 0.005 μM
  Day 4 syncitia formed: −
  Day 5 syncitia formed: +
  Day 6 syncitia formed: ++
HIV-1 NL 4-3 [1]; 0.01 μM
  Day 4 syncitia formed: −
  Day 5 syncitia formed: +
  Day 6 syncitia formed: ++
  Day 7 syncitia formed: ++
HIV-1 NL 4-3 [1]; 0.05 μM
  Day 4 syncitia formed: −
  Day 5 syncitia formed: (+)
  Day 6 syncitia formed: +
  Day 7 syncitia formed: +
HIV-1 NL 4-3 [1]; 0.1 μM
  Day 4 syncitia formed: −
  Day 5 syncitia formed: (+)
  Day 6 syncitia formed: +
  Day 7 syncitia formed: +
HIV-1 NL 4-3 [1]; 0.5 μM
  Day 4 syncitia formed: −
  Day 5 syncitia formed: −
  Day 6 syncitia formed: −
  Day 7 syncitia formed: −
HIV-1 NL 4-3 [1]; 1 μM
  Day 4 syncitia formed: −
  Day 5 syncitia formed: −
  Day 6 syncitia formed: −
  Day 7 syncitia formed: −
HIV-1 NL 4-3 [1]; 5 μM
  Day 4 syncitia formed: −
  Day 5 syncitia formed: −
  Day 6 syncitia formed: −
  Day 7 syncitia formed: −
HIV-1 NL 4-3 [2]; 0.005 μM, Table 6
  Day 7 syncitia formed: ++/T
HIV-1 NL 4-3 [2]; 0.01 μM, C8166 cells
  syncitia formed, Day 4: −
  syncitia formed, Day 5: +
  syncitia formed, Day 6: ++
HIV-1 NL 4-3 [2]; 0.01 μM, Day 7, C8166 cells
  syncitia formed, Day 7: ++
HIV-1 NL 4-3 [2]; 0.01 μM, P 24 after Day 7, C8166 cells
  P 24: 13870 pg/mL and 11810 pg/mL
HIV-1 NL 4-3 [2]; 0.05 μM, C8166 cells
  syncitia formed, Day 4: −
  syncitia formed, Day 5: (+)
  syncitia formed, Day 6: +
HIV-1 NL 4-3 [2]; 0.05 μM, Day 7, C8166 cells
  syncitia formed, Day 7: +
HIV-1 NL 4-3 [2]; 0.1 μM, C8166 cells
  syncitia formed, Day 4: −
  syncitia formed, Day 5: −
  syncitia formed, Day 6: (+)
HIV-1 NL 4-3 [2]; 0.1 μM, Day 7, C8166 cells
  syncitia formed, Day 7: +
HIV-1 NL 4-3 [2]; 0.1 μM, P 24 after Day 7, C8166 cells
  P 24: 2356 pg/mL and 2416 pg/mL
HIV-1 NL 4-3 [2]; 0.5 μM, C8166 cells
  syncitia formed, Day 4: −
  syncitia formed, Day 5: −
  syncitia formed, Day 6: −
HIV-1 NL 4-3 [2]; 0.5 μM, Day 7, C8166 cells
  syncitia formed, Day 7: (+)
HIV-1 NL 4-3 [2]; 1 μM, C8166 cells
  syncitia formed, Day 4: −
  syncitia formed, Day 5: −
  syncitia formed, Day 6: −
HIV-1 NL 4-3 [2]; 1 μM, Day 7, C8166 cells
  syncitia formed, Day 7: −
HIV-1 NL 4-3 [2]; 1 μM, P 24 after Day 7, C8166 cells
  P 24: 13 pg/mL and 10 pg/mL
HIV-1 NL 4-3 [2]; 5 μM, C8166 cells
  syncitia formed, Day 4: −
  syncitia formed, Day 5: −
  syncitia formed, Day 6: −
HIV-1 NL 4-3 [2]; 5 μM, Day 7, C8166 cells
  syncitia formed, Day 7: −
HIV-1 NL 4-3 [2]; 5 μM, P 24 after Day 7, C8166 cells
  P 24: 2.7 pg/mL and 3 pg/mL
HIV-1 NL 4-3 [2]; C8166 cells, HIV-1 subtype B NL 4-3, Table 9, two lines = tested twice, 8 days apart
  IC50: 10 nM
HIV-1 NL 4-3 [2]; Day 7, 0.005 μM, Table 6
  P 24: 23810 pg/mL
HIV-1 NL 4-3 [2]; Day 7, 0.01 μM, Table 6
  P 24: 13030 pg/mL and 13810 pg/mL
HIV-1 NL 4-3 [2]; Day 7, 0.05 μM, Table 6
  P 24: 6830 pg/mL and 3820 pg/mL
HIV-1 NL 4-3 [2]; Day 7, 0.5 μM, Table 6
  P 24: 2 pg/mL and 2.2 pg/mL
HIV-1 NL 4-3 [2]; Day 7, 1 μM, Table 6
  P 24: 2.3 pg/mL and 1.9 pg/mL
HIV-1 NL 4-3 [2]; Day 7, 5 μM, Table 6
  P 24: 2.7 pg/mL and 1.8 pg/mL
HIV-1 NDK; 0.005 μM
  syncitia formed, Day 4: (+)
  syncitia formed, Day 5: +
  syncitia formed, Day 6: ++
  syncitia formed, Day 7: ++
  P 24: 23810 pg/mL
HIV-1 NDK; 0.01 μM
  syncitia formed, Day 4: −
  syncitia formed, Day 5: +
  syncitia formed, Day 6: ++
  syncitia formed, Day 7: ++
  P 24: 13810 pg/mL and 18710 pg/mL
HIV-1 NDK; 0.05 μM
  syncitia formed, Day 4: −
  syncitia formed, Day 5: (+)
  syncitia formed, Day 6: ++
  syncitia formed, Day 7: ++
HIV-1 NDK; 0.1 μM
  syncitia formed, Day 4: −
  syncitia formed, Day 5: (+)
  syncitia formed, Day 6: ++
  syncitia formed, Day 7: ++
  P 24: 5600 pg/mL and 6400 pg/mL
HIV-1 NDK; 0.5 μM
  syncitia formed, Day 4: −
  syncitia formed, Day 5: −
  syncitia formed, Day 6: +
  syncitia formed, Day 7: ++
HIV-1 NDK; 1 μM
  syncitia formed, Day 4: −
  syncitia formed, Day 5: −
  syncitia formed, Day 6: −
  syncitia formed, Day 7: +
  P 24: 2000 pg/mL and 2403 pg/mL
HIV-1 NDK; 5 μM
  syncitia formed, Day 4: −
  syncitia formed, Day 5: −
  syncitia formed, Day 6: −
  syncitia formed, Day 7: − and (+)
HIV-1 NDK; HIV 1 NDK, Table 10
  IC50: > 5000 nM
  IC100: 5 µM
